The results in this text go back to patent publication US11209437B2, “Fluorescent probe and preparation method and use thereof” (Fluorescence Diagnosis (shanghai) Biotech Company Ltd., priority 2016, dated 2021).

Where only a bound is given, the exact number is not on record here.

Data set [1] is described as follows: Viscosity responsiveness: fluorescence emission spectra of probes in glycerol and methanol. It counts as physicochemical. The conditions noted are these: for Emission wavelength: excited at maximum excitation wavelength of each probe; for Fluorescence ratio in glycerol to methanol: probe 1×10^−5 M. The protocol:
Probes 1 to 98, 101, 103, 105, 107, 109, 111, 114, 117, and 120, and the reference probes 99, 100, 102, 104, 106, 108, 110, 112, 113, 115, 116, 118, 119, 121, BG-CCVJ and BG-Gly-CCVJ were dissolved in dimethyl sulfoxide, respectively, to prepare mother liquors having a concentration of 1×10^−2 M, to each of which glycerol and methanol were added and uniformly mixed, to prepare solutions finally having a concentration of 1×10^−5 M. Depending on the probes, fluorescence emission spectra of the probes were detected successively with the maximum excitation wavelength of each probe under the same conditions, and the results were shown in Table 1.
That is, these probes are sensitive to viscosity changes and have viscosity responsiveness.

A short description of data set [2]: Fluorescence of free probe prior to binding to a protein tag. Format: physicochemical. The protocol: (§1) Probes were mixed with corresponding protein tags to obtain mixed samples, in which the final probe concentration was 5 μM, and the final protein tag concentration was 10 μM. The mixed samples were incubated 37° C. for 1 hr, fluorescence spectrophotometer was used to detect the change in fluorescence intensity, and the results are shown in Table 1.
(§2) From the quantum yield of probe bound to protein tag, after reacting with the protein tags, the probes of the Examples could be detected to have significant signal enhancement in corresponding excitation transmission channels, the fluorescence activation multiple reached several hundreds to a thousand or more, and the brightness was high, which illustrates that after the probes of the Examples are bound to the protein tags, fluorescence of the probes can be activated, and the probes have good fluorescent molecular switching properties. In contrast, though the fluorescence of the reference probes could also be activated, the quantum yield of activated fluorescence was very low, and the brightness was very poor. In particular, in view of comparison results between probe 98 and reference probe 99, probe 101 and reference probe 102, probe 103 and reference probe 104, probe 105 and reference probe 106, probe 107 and reference probe 108, probe 109 and reference probe 110, probe 111 and reference probe 112, probe 114 and reference probe 115, probe 117 and reference probe 118, probe 120 and reference probe 121 in Table 1, for the same fluorescent dye, when the ligand is connected to the electron donor part of the fluorescent dye, the fluorescence activation brightness of the probe is much higher than the reference probe in which ligand is connected to the electron acceptor part of the fluorescent dye.

The target of data set [3] is T1, SNAP protein tags (Homo sapiens, UniProt P16455, A127T/A154D/C150Q/C62A/E30R/G131K/G132T/G153L/K125A/K32I/L33F/M134L/N157G/Q115S/Q116H/R128A/R135S/S151G/S152D/S159E).
T1 sequence (P16455 1-182 E30R/K32I/L33F/C62A/Q115S/Q116H/K125A/A127T/R128A/G131K/G132T/M134L/R135S/C150Q/S151G/S152D/G153L/A154D/N157G/S159E): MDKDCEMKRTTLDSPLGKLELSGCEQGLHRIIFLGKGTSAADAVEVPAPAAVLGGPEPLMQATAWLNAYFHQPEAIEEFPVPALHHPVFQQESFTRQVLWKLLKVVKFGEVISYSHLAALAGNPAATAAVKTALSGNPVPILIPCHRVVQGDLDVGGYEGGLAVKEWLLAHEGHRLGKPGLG
In words: Fluorescence activation of probe after incubation with corresponding protein tag (SNAP). The note with it: probe 5 μM, protein tag 10 μM, 37° C., 1 hr. Format: biochemical. As to the method: as §1, §2

As for `CN(CCOC(=O)NCc1ccc(COc2cc(Cl)nc(N)n2)cc1)c1ccc(C2=C(C#N)C(=C(C#N)C#N)OC2(C)C)cc1` [probe 19], in data set [1], the Emission wavelength is listed as 535 nm and the “Fluorescence ratio in glycerol to methanol” value (shortened to “Fluorescence ratio”) was 299. Also, in data set [2], the “Quantum yield of free probe” value is given as 0.0012. Moreover, in data set [3], the Fluorescence activation multiple is 361 and the “Quantum yield of probe bound to protein tag” value (shortened to “Quantum yield of probe bound”) stood at 0.45.

Take `CN(CCOC(=O)NCc1ccc(COc2nc(N)nc3[nH]cnc23)cc1)c1cc2sc(/C=C(\C#N)c3nc4ccccc4o3)cc2s1` [probe 22]: in data set [1], the Emission wavelength was found to be 590 nm and the “Fluorescence ratio” value came to 1821. The “Quantum yield of free probe” value in data set [2] is on record as less than 0.001. Further, in data set [3], the Fluorescence activation multiple is on record as 610 and the “Quantum yield of probe bound” value was found to be 0.36.

Regarding `CN(CCOC(=O)NCc1ccc(COc2nc(N)nc3[nH]cnc23)cc1)c1cc2sc(/C=C(\C#N)c3nc4ccccc4s3)cc2s1` [probe 23], in data set [1], the Emission wavelength is listed as 610 nm and the “Fluorescence ratio” value stood at 1235. Besides, in data set [2], the “Quantum yield of free probe” value is reported as less than 0.001. Also, in data set [3], the Fluorescence activation multiple is reported as 712 and the “Quantum yield of probe bound” value is 0.42.

With `CN(CCOC(=O)NCc1ccc(COc2cc(Cl)nc(N)n2)cc1)c1cc2sc(/C=C(\C#N)C(=O)OC(C)(C)C)cc2s1` [probe 24], in data set [1], the Emission wavelength worked out at 555 nm and the “Fluorescence ratio” value came to 1681. For the same compound, the “Quantum yield of free probe” value in data set [2] is less than 0.001. Also, in data set [3], the Fluorescence activation multiple was found to be 590 and the “Quantum yield of probe bound” value is 0.48.

For the compound `CN(CCOC(=O)NCc1ccc(COc2cc(Cl)nc(N)n2)cc1)c1cc2sc(/C=C(\C#N)c3nc4ccccc4o3)cc2s1` [probe 25], in data set [1], the Emission wavelength was 590 nm and the “Fluorescence ratio” value was 1621. In data set [2], the “Quantum yield of free probe” value is given as less than 0.001. In data set [3], the Fluorescence activation multiple is reported as 670 and the “Quantum yield of probe bound” value worked out at 0.36.

`CN(CCOC(=O)NCc1ccc(COc2cc(Cl)nc(N)n2)cc1)c1cc2sc(/C=C(\C#N)c3nc4ccccc4s3)cc2s1` [probe 26]: in data set [1], the Emission wavelength is 610 nm and the “Fluorescence ratio” value was 1123. For the same compound, the “Quantum yield of free probe” value in data set [2] is recorded as less than 0.001. Moreover, in data set [3], the Fluorescence activation multiple came out at 910 and the “Quantum yield of probe bound” value is reported as 0.42.

`CN(CCOC(=O)NCc1ccc(COc2nc(N)nc3[nH]cnc23)cc1)c1ccc2cc(/C=C(\C#N)c3nc4ccccc4o3)sc2c1` [probe 31]: in data set [1], the Emission wavelength is recorded as 607 nm and the “Fluorescence ratio” value was determined as 1135. In addition, in data set [2], the “Quantum yield of free probe” value was less than 0.001. In data set [3], the Fluorescence activation multiple worked out at 421 and the “Quantum yield of probe bound” value is recorded as 0.41.

In the case of `CN(CCOC(=O)NCc1ccc(COc2nc(N)nc3[nH]cnc23)cc1)c1ccc2cc(/C=C(\C#N)c3nc4ccccc4s3)sc2c1` [probe 32], in data set [1], the Emission wavelength was determined as 609 nm and the “Fluorescence ratio” value is given as 997. Further, the “Quantum yield of free probe” value in data set [2] is recorded as less than 0.001. Further, in data set [3], the Fluorescence activation multiple came out at 638 and the “Quantum yield of probe bound” value is on record as 0.46.

Turning to `CN(CCOC(=O)NCc1ccc(COc2cc(Cl)nc(N)n2)cc1)c1ccc2cc(/C=C(\C#N)C(=O)OC(C)(C)C)sc2c1` [probe 33], in data set [1], the Emission wavelength is on record as 570 nm and the “Fluorescence ratio” value is 1781. Moreover, the “Quantum yield of free probe” value in data set [2] is listed as less than 0.001. In addition, in data set [3], the Fluorescence activation multiple was found to be 957 and the “Quantum yield of probe bound” value stood at 0.55.

Take `CC(C)(C)OC(=O)/C(C#N)=C/c1cc2ccc(N(CCC#N)CCOC(=O)NCc3ccc(COc4nc(N)nc5[nH]cnc45)cc3)cc2s1` [probe 36]: in data set [1], the Emission wavelength amounted to 570 nm and the “Fluorescence ratio” value was determined as 1258. Moreover, in data set [2], the “Quantum yield of free probe” value is reported as 0.001. For the same compound, in data set [3], the Fluorescence activation multiple was 488 and the “Quantum yield of probe bound” value worked out at 0.50.

Consider `CC(C)(C)OC(=O)/C(C#N)=C/c1cc2ccc(N(CCO)CCOC(=O)NCc3ccc(COc4nc(N)nc5[nH]cnc45)cc3)cc2s1` [probe 37], for which, in data set [1], the Emission wavelength is 570 nm and the “Fluorescence ratio” value is recorded as 1135. Also, the “Quantum yield of free probe” value in data set [2] was found to be 0.0012. In data set [3], the Fluorescence activation multiple was determined as 469 and the “Quantum yield of probe bound” value is given as 0.56.

With `CC(C)(C)OC(=O)/C(C#N)=C/c1cc2ccc(N(CCOC(=O)NCCCS(=O)(=O)O)CCOC(=O)NCc3ccc(COc4nc(N)nc5[nH]cnc45)cc3)cc2s1` [probe 39], in data set [1], the Emission wavelength turned out to be 570 nm and the “Fluorescence ratio” value was determined as 892. Besides, the “Quantum yield of free probe” value in data set [2] was found to be 0.0016. Further, in data set [3], the Fluorescence activation multiple is recorded as 335 and the “Quantum yield of probe bound” value is reported as 0.55.

Take `CN(CCOC(=O)NCc1ccc(COc2nc(N)nc3[nH]cnc23)cc1)c1ccc2cc(/C=C(\C#N)C(=O)OC(C)(C)C)sc2c1` [probe 40]: in data set [1], the Emission wavelength was found to be 570 nm and the “Fluorescence ratio” value is 759. Also, the “Quantum yield of free probe” value in data set [2] is 0.001. In data set [3], the Fluorescence activation multiple came out at 421 and the “Quantum yield of probe bound” value was 0.41.

Take `CC1=N/C(=C/c2cc3ccc(N(C)CCOC(=O)NCc4ccc(COc5nc(N)nc6[nH]cnc56)cc4)cc3s2)C(=O)N1C` [probe 41]: in data set [1], the Emission wavelength worked out at 575 nm and the “Fluorescence ratio” value worked out at 101. Moreover, the “Quantum yield of free probe” value in data set [2] is on record as 0.0015. Besides, in data set [3], the Fluorescence activation multiple stood at 212 and the “Quantum yield of probe bound” value turned out to be 0.31.

For `CN1C(=O)/C(=C\c2cc3ccc(N(C)CCOC(=O)NCc4ccc(COc5nc(N)nc6[nH]cnc56)cc4)cc3s2)N=C1c1ccccc1` [probe 42], in data set [1], the Emission wavelength stood at 600 nm and the “Fluorescence ratio” value was 178. For the same compound, the “Quantum yield of free probe” value in data set [2] is on record as 0.0013. Besides, in data set [3], the Fluorescence activation multiple is 298 and the “Quantum yield of probe bound” value is on record as 0.38.

For the compound `CN(CCOC(=O)NCc1ccc(COc2nc(N)nc3[nH]cnc23)cc1)c1ccc2nc(/C=C(\C#N)C(=O)OC(C)(C)C)oc2c1` [probe 43], in data set [1], the Emission wavelength is listed as 602 nm and the “Fluorescence ratio” value came out at 1028. In addition, the “Quantum yield of free probe” value in data set [2] is on record as less than 0.001. Moreover, in data set [3], the Fluorescence activation multiple is 982 and the “Quantum yield of probe bound” value came out at 0.37.

Consider `CN(CCOC(=O)NCc1ccc(COc2cc(Cl)nc(N)n2)cc1)c1ccc2nc(/C=C(\C#N)C(=O)OC(C)(C)C)oc2c1` [probe 44], for which, in data set [1], the Emission wavelength is recorded as 603 nm and the “Fluorescence ratio” value is recorded as 1459. Besides, in data set [2], the “Quantum yield of free probe” value is recorded as less than 0.001. Besides, in data set [3], the Fluorescence activation multiple was found to be 1586 and the “Quantum yield of probe bound” value stood at 0.37.

Take `CN(CCOC(=O)NCc1ccc(COc2nc(N)nc3[nH]cnc23)cc1)c1ccc2nc(/C=C(\C#N)c3nc4ccccc4o3)oc2c1` [probe 46]: in data set [1], the Emission wavelength is listed as 620 nm and the “Fluorescence ratio” value is 682. In addition, in data set [2], the “Quantum yield of free probe” value is listed as less than 0.001. Moreover, in data set [3], the Fluorescence activation multiple was 563 and the “Quantum yield of probe bound” value came to 0.21.

Turning to `CN(CCOC(=O)NCc1ccc(COc2nc(N)nc3[nH]cnc23)cc1)c1ccc2nc(/C=C(\C#N)c3nc4ccccc4s3)oc2c1` [probe 47], in data set [1], the Emission wavelength stood at 627 nm and the “Fluorescence ratio” value stood at 235. In data set [2], the “Quantum yield of free probe” value is listed as less than 0.001. Further, in data set [3], the Fluorescence activation multiple was 358 and the “Quantum yield of probe bound” value came to 0.26.

In the case of `CN(CCOC(=O)NCc1ccc(COc2nc(N)nc3[nH]cnc23)cc1)c1ccc2nc(/C=C(\C#N)C(=O)O)oc2c1` [probe 49], in data set [1], the Emission wavelength was found to be 601 nm and the “Fluorescence ratio” value is on record as 210. Also, the “Quantum yield of free probe” value in data set [2] is on record as less than 0.001. In data set [3], the Fluorescence activation multiple is 541 and the “Quantum yield of probe bound” value was found to be 0.11.
